Data set [1] concerns intraocular pressure. The experiment in a line: Efficacy Test 3: intraocular pressure in normal rabbits (Alcon pneumatic tonometer). The settings on record: for Intraocular pressure 30 minutes after instillation, average / Intraocular pressure 1 hour after instillation, average / Intraocular pressure 30 minutes after instillation / Intraocular pressure 1 hour after instillation: 1% (W/V), 100 μl. It counts as in vivo, rabbit (male New Zealand Albino). The procedure:
Male rabbits of New Zealand Albino strain, weighing 1.8 to 2.5 kg, are used as experimental animals. Intraocular pressure is measured with an Alcon pneumatic tonometer without local anesthesia, while holding the animal in a cylindrical rabbit holder.
The test compound is dissolved in a physiological solution of NaCl to a concentration of 1% (W/V), and the resulting solution is adjusted to a pH of 6.5 to 7.0 with a 0.01 N aqueous NaOH solution. The solution is instilled to one of the eyes of the animal in an accurate amount of 100 μl with a microsyringe after measuring the intraocular pressure of the eye. The eyelid is held closed for 1 minute after the instillation to prevent the escape of the solution.
The efficacy of the test compound is determined by measuring the intraocular pressure 30 minutes and 1 hour after the instillation and comparing the measurements with the pressure measured before the instillation. A 100 μl quantity of physiological saline containing no test compound is similarly tested on a control group.

Data set [2] deals with mice. The experiment in a line: Acute Toxicity Test, intravenous, mice. The class given is in vivo. The procedure:
(§1) Active compounds useful for the glaucoma treating compositions of this invention are intravenously administered to mice to test the compounds for acute toxicity.
(§2) Other active compounds of this invention are also tested for acute toxicity in the same manner as above, i.e., by intravenously administering them to mice. The LD50 values determined are all not lower than about 40 mg/kg.

Data set [3] can be described thus: Acute Toxicity Test, intravenous, mice. The settings on record: mouse, in vivo. It counts as in vivo. The procedure: as §1, §2
Data set [4] in a line: Acute toxicity, oral administration, male rats. The following applies: rat, in vivo. The source says:
*Determined by the oral administration of Compound C to male rats.

Each structure is given as a SMILES string. Several values for one entry are separate records, joined by “and”; a condition that tells them apart may be missing. Identical values can stand only once. Counter-ions that a name gives are not always drawn.

As usually defined, the LD50 is the dose at which mortality reaches 50%.

Turning to `COc1ccc(CCNCC(O)COc2ccc(O)c3c2CCC(=O)N3)cc1OC` (stereo not drawn) [Compound D, 8-Hydroxy-5-[2-hydroxy-3-(β-3,4-dimethoxyphenethylamino)]propoxy-3,4-dihydrocarbostyril hydrochloride], in data set [1] (average of animals), the “Intraocular pressure 30 minutes after instillation, average” value (from here on “Intraocular pressure 30 minutes … average”) stood at 17.0 mm Hg and the “Intraocular pressure 1 hour after instillation, average” value (“Intraocular pressure 1 hour … average” for short) worked out at 14.0 mm Hg. Further, in data set [1] (individual animal), the “Intraocular pressure 30 minutes after instillation” value is 17 mm Hg.
Regarding `CC(C)(C)NCC(O)COc1cccc2c1CCC(=O)N2` (centres unmarked) [Compound A, 5-(2-Hydroxy-3-tert-butylamino)propoxy-3,4-dihydrocarbostyril hydrochloride], in data set [1] (average of animals), the “Intraocular pressure 30 minutes … average” value stood at 17.2 mm Hg and the “Intraocular pressure 1 hour … average” value was found to be 17.4 mm Hg. Besides, in data set [2], the LD50 is given as 54.4 mg/kg.
Turning to `COc1ccc(CCNCC(O)COc2ccc(NC(N)=O)c3c2CCC(=O)N3)cc1OC` (stereo not drawn) [Compound J, 8-Ureido-5-[2-hydroxy-3-(β-3,4-dimethoxyphenethylamino)]propoxy-3,4-dihydrocarbostyril hydrochloride], in data set [1] (average of animals), the “Intraocular pressure 30 minutes … average” value is on record as 17.5 mm Hg and the “Intraocular pressure 1 hour … average” value is on record as 17.0 mm Hg. In data set [3], this compound registered an LD50 of 143 mg/kg.
As for `C=CCN1C(=O)CCc2c(OCC(O)CNC(C)(C)C)cccc21` (centres unmarked) [Compound N, 1-Allyl-5-(2-hydroxy-3-tert-butylamino)propoxy-3,4-dihydrocarbostyril hydrochloride], in data set [1] (average of animals), the “Intraocular pressure 30 minutes … average” value was determined as 17.5 mm Hg and the “Intraocular pressure 1 hour … average” value is given as 16.5 mm Hg.
As for `CC(C)(C)NCC(O)COc1cccc2[nH]c(=O)ccc12` (centres unmarked) [Compound B, 5-(2-Hydroxy-3-tert-butylamino)propoxycarbostyril hydrochloride], in data set [1] (average of animals), the “Intraocular pressure 30 minutes … average” value is on record as 17.0 mm Hg and the “Intraocular pressure 1 hour … average” value amounted to 16.5 mm Hg. Also, the LD50 in data set [3] stood at 44.6 mg/kg.
For `COc1ccc(CCNCC(O)COc2ccc(NC(C)=O)c3c2CCC(=O)N3)cc1OC` (stereo not drawn) [Compound L, 8-Acetylamino-5-[2-hydroxy-3-(β-3,4-dimethoxyphenethylamino)]propoxy-3,4-dihydrocarbostyril hydrochloride], in data set [1] (average of animals), the “Intraocular pressure 30 minutes … average” value was found to be 18.0 mm Hg and the “Intraocular pressure 1 hour … average” value came out at 17.5 mm Hg. Further, the “Intraocular pressure 30 minutes after instillation” value in data set [1] (individual animal) was determined as 18 mm Hg.
Turning to `CC(C)NCC(O)COc1cccc2c1NC(=O)CC2` (centres unmarked) [Compound I, 8-(2-Hydroxy-3-isopropylamino)propoxy-3,4-dihydrocarbostyril hydrochloride], in data set [1] (average of animals), the “Intraocular pressure 30 minutes … average” value turned out to be 16.5 mm Hg and the “Intraocular pressure 1 hour … average” value came out at 16.5 mm Hg. The LD50 in data set [3] came to 81.6 mg/kg.
Regarding `O=C1CCc2c(cccc2OCC(O)CNC2CCCCC2)N1` (centres unmarked) [Compound G, 5-(2-Hydroxy-3-cyclohexylamino)propoxy-3,4-dihydrocarbostyril hydrochloride], in data set [1] (average of animals), the “Intraocular pressure 30 minutes … average” value stood at 16.5 mm Hg and the “Intraocular pressure 1 hour … average” value came out at 16.5 mm Hg.
With `O=C1CCc2c(cccc2OCC(O)CNCc2ccccc2)N1` (centres unmarked) [Compound F, 5-(2-Hydroxy-3-benzylamino)propoxy-3,4-dihydrocarbostyril hydrochloride], in data set [1] (average of animals), the “Intraocular pressure 30 minutes … average” value came out at 18.5 mm Hg and the “Intraocular pressure 1 hour … average” value is 18.5 mm Hg.
As to `CCN1C(=O)CCc2c(OCC(O)CNC3CCCCC3)cccc21` (centres unmarked) [Compound H, 1-Ethyl-5-(2-hydroxy-3-cyclohexylamino)propoxy-3,4-dihydrocarbostyril hydrochloride], in data set [1] (average of animals), the “Intraocular pressure 30 minutes … average” value turned out to be 15.5 mm Hg and the “Intraocular pressure 1 hour … average” value amounted to 15.5 mm Hg.
Turning to `C#CCOc1ccc(OCC(O)CNCCc2ccc(OC)c(OC)c2)c2c1NC(=O)CC2.O=C(O)C(=O)O` (stereo not drawn) [Compound K, 8-Propynyloxy-5-[2-hydroxy-3-(β-3,4-dimethoxyphenethylamino)]propoxy-3,4-dihydrocarbostyril oxalate], in data set [1] (average of animals), the “Intraocular pressure 30 minutes … average” value worked out at 18.5 mm Hg and the “Intraocular pressure 1 hour … average” value came out at 18.0 mm Hg. In data set [1] (average of animals, baseline), the “Intraocular pressure before instillation, average” value was determined as 19.5 mm Hg. In data set [1] (individual animal), the “Intraocular pressure 30 minutes after instillation” value is 19 mm Hg and 18 mm Hg; the “Intraocular pressure 1 hour after instillation” value was determined as 18 mm Hg. Also, the “Intraocular pressure before instillation” value in data set [1] (individual animal, baseline) was 20 mm Hg and 19 mm Hg.
Turning to `CCNCC(O)COc1cccc2c1CCC(=O)N2` (centres unmarked) [Compound E, 5-(2-Hydroxy-3-ethylamino)propoxy-3,4-dihydrocarbostyril maleate], in data set [1] (average of animals), the “Intraocular pressure 30 minutes … average” value stood at 18.0 mm Hg and the “Intraocular pressure 1 hour … average” value stood at 17.0 mm Hg.
In the case of `C=CCOc1ccc(OCC(O)CNC(C)(C)C)c2c1NC(=O)CC2` (centres unmarked) [Compound M, 8-Allyloxy-5-(2-hydroxy-3-tert-butylamino)propoxy-3,4-dihydrocarbostyril hydrochloride], in data set [1] (average of animals), the “Intraocular pressure 30 minutes … average” value is listed as 19.0 mm Hg and the “Intraocular pressure 1 hour … average” value is recorded as 18.0 mm Hg. Also, in data set [1] (individual animal), the “Intraocular pressure 30 minutes after instillation” value is reported as 19 mm Hg and the “Intraocular pressure 1 hour after instillation” value was 18 mm Hg.
On to `COc1ccc(CCNCC(O)COc2ccc(OCC(C)=O)c3c2CCC(=O)N3)cc1OC` (stereo not drawn) [Compound C, 8-Methylcarbonylmethoxy-5-[2-hydroxy-3-(β-3,4-dimethoxyphenethylamino)]propoxy-3,4-dihydrocarbostyril oxalate], for which the LD50 in data set [4] is 1260 mg/kg. Moreover, in data set [1] (average of animals), the “Intraocular pressure 30 minutes … average” value was determined as 17.0 mm Hg and the “Intraocular pressure 1 hour … average” value came to 17.0 mm Hg.

Values taken from patent US4309432A, “Compositions for treating glaucoma containing a carbostyril” (priority 1979, dated 1982).
